Experimental data as given in ChEMBL document CHEMBL1938231 (J Med Chem, 2011).
pIC50: −log10 of the molar value.

How the values were obtained:
[1] = molecular target: T1, Tyrosine-protein kinase JAK1 (Homo sapiens, UniProt P23458); assay type: cell-based, Sf9
[2] = molecular target: T2, Tyrosine-protein kinase JAK3 (Homo sapiens, UniProt P52333); assay type: cell-based, Sf9
T2 sequence (P52333 whole entry): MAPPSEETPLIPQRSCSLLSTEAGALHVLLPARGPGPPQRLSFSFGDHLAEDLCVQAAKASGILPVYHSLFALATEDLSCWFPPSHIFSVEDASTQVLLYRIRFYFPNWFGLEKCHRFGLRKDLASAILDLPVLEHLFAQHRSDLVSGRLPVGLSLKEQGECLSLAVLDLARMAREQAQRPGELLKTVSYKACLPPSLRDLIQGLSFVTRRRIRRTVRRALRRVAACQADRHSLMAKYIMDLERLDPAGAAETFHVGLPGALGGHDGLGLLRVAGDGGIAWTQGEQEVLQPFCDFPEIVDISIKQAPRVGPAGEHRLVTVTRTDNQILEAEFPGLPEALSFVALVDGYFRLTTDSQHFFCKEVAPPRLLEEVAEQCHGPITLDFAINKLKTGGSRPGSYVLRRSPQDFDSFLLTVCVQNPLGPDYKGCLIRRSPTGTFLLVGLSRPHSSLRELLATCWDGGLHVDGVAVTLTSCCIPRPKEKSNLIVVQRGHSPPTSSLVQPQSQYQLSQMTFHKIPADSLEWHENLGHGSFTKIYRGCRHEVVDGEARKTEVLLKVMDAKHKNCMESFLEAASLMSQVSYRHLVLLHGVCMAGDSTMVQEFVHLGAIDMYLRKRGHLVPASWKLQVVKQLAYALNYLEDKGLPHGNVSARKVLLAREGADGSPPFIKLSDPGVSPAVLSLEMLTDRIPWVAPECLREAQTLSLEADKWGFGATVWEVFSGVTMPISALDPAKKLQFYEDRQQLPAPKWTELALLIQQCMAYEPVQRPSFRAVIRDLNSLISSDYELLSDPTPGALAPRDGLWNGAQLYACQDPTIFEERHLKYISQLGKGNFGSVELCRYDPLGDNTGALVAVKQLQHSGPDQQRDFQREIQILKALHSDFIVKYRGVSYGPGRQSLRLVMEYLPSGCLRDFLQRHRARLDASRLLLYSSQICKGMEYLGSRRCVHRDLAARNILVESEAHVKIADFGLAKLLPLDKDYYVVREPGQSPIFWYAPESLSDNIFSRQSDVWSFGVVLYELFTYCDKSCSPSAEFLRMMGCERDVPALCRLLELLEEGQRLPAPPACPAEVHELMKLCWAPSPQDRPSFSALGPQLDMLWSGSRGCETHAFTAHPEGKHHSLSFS

[3] = molecular target: T3, Non-receptor tyrosine-protein kinase TYK2 (Homo sapiens, UniProt P29597); assay type: cell-based, Sf9
T3 sequence (P29597 whole entry): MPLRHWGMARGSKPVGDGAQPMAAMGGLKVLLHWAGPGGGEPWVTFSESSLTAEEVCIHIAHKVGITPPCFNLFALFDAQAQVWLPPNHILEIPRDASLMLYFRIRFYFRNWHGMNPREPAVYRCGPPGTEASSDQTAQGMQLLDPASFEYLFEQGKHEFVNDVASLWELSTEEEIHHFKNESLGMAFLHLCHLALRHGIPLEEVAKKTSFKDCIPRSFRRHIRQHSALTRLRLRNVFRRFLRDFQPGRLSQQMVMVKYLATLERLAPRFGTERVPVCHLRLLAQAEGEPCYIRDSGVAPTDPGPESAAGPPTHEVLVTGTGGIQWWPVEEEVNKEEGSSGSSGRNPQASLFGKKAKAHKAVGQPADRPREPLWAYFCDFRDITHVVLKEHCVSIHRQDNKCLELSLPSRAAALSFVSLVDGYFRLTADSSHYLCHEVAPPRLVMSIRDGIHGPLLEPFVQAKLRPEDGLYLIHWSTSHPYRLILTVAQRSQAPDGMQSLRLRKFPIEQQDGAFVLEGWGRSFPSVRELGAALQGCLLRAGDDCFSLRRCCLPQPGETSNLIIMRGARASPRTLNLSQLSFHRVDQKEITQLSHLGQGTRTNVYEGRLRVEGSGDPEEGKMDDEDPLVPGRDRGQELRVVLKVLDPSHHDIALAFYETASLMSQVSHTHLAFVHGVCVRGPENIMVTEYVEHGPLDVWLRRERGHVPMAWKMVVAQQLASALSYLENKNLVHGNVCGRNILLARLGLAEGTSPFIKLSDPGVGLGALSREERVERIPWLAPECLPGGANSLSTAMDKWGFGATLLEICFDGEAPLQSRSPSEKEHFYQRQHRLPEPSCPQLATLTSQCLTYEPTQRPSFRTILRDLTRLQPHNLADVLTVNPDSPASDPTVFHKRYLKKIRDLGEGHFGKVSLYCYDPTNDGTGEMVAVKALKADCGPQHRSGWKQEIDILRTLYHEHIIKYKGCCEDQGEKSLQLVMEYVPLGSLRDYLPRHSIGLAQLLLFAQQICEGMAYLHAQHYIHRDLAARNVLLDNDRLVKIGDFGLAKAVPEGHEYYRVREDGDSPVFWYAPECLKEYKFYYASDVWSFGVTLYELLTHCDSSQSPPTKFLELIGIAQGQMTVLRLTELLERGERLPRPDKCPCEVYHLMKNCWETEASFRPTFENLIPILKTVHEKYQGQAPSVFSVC

[4] = molecular target: T1, Tyrosine-protein kinase JAK1; assay type: cell-based, BaF3
[5] = molecular target: T2, Tyrosine-protein kinase JAK3; assay type: cell-based, BaF3
[6] = molecular target: T3, Non-receptor tyrosine-protein kinase TYK2; assay type: cell-based, BaF3
JAK3/JAK1 [7] = molecular target: T4, JAK3/JAK1 (Homo sapiens, UniProt P23458+P52333); assay type: cell-based
T4 sequence (P23458 whole entry, one chain of several): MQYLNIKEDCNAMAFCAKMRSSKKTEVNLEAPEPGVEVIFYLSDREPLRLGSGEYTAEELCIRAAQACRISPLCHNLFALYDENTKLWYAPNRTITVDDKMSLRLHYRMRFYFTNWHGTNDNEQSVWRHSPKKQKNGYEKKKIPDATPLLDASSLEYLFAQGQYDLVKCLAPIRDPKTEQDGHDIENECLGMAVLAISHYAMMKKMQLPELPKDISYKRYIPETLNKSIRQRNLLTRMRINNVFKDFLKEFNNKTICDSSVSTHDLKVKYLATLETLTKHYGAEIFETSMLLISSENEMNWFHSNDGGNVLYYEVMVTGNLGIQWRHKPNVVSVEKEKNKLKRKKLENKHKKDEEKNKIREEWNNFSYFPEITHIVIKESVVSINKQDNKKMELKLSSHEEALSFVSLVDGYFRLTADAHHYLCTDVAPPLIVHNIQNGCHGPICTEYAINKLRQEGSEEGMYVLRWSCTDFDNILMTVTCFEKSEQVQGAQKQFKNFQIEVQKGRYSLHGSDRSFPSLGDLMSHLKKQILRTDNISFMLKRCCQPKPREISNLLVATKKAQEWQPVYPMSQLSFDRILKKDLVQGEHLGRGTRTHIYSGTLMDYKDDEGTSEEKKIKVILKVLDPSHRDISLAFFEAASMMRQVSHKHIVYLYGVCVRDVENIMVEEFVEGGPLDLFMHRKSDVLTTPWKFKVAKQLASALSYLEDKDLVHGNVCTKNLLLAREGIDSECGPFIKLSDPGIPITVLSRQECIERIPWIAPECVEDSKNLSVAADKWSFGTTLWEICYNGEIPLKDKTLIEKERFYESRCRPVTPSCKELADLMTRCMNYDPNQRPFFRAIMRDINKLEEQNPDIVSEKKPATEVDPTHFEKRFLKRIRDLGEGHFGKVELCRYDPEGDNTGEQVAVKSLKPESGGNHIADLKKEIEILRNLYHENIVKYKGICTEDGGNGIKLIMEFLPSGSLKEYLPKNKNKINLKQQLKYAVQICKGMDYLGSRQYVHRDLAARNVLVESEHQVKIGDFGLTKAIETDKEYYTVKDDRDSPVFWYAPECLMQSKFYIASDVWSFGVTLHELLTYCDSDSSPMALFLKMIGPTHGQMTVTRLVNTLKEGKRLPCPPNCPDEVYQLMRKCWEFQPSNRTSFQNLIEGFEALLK

JAK3/JAK1 [8] = molecular target: T4, JAK3/JAK1; assay type: cell-based, Blood
in vitro = conditions: human, plasma
Description: Fraction unbound in human plasma by equilibrium dialysis

T1 sequence (P23458 whole entry): as the sequence (P23458 whole entry, one chain of several) above

pIC50 [1]	pIC50 [2]	pIC50 [3]	pIC50 [4]	pIC50 [5]	pIC50 [6]	pIC50 (JAK3/JAK1 [7])	pIC50 (JAK3/JAK1 [8])	fraction unbound (in vitro)	SMILES
7.41	7.74	7.18	6.13	< 4.60	< 4.60	6.26	< 4.60		NC(=O)c1cnc(N)c2cc(-c3ccc(N4CCOCC4)cc3)sc12
6.68	5.87	5.88	5.74	< 4.60	< 4.60				CNC(=O)c1cnc(N)c2cc(-c3ccc(N4CCOCC4)cc3)sc12
6.88	6.01	5.97							CCNC(=O)c1cnc(N)c2cc(-c3ccc(N4CCOCC4)cc3)sc12
6.39	5.54	5.70							Nc1ncc(C(=O)Nc2ccccc2)c2sc(-c3ccc(N4CCOCC4)cc3)cc12
6.51	< 3.90	5.59							Nc1ncc(C(=O)NCc2ccccc2)c2sc(-c3ccc(N4CCOCC4)cc3)cc12
5.05	4.99	5.16							CC(C)(C)NC(=O)c1cnc(N)c2cc(-c3ccc(N4CCOCC4)cc3)sc12
5.51	5.78	5.29							CN(C)C(=O)c1cnc(N)c2cc(-c3ccc(N4CCOCC4)cc3)sc12
6.54	6.12	6.03		< 4.60	< 4.60				CNC(=O)c1cnc(N)c2cc(-c3ccccc3)sc12
6.42	6.26	6.05	< 4.60	< 4.60	< 4.60				CNC(=O)c1cnc(N)c2cc(-c3ccc(C)cc3)sc12
7.41	6.73	6.69		< 4.60	< 4.60				CNC(=O)c1cnc(N)c2cc(-c3ccc(C(C)(C)C)cc3)sc12
7.15	6.44	6.68	5.16	< 4.60	< 4.60				CNC(=O)c1cnc(N)c2cc(-c3ccc(OC(F)(F)F)cc3)sc12
7.44	6.93	6.84	5.94	< 4.60	< 4.60				CNC(=O)c1cnc(N)c2cc(-c3ccc(C(C)(C)C#N)cc3)sc12
7.52	6.51	6.58	5.96	< 4.60	< 4.60	6.20	< 4.60	0.012	CNC(=O)c1cnc(N)c2cc(-c3ccc(S(=O)(=O)NC(C)(C)C)cc3)sc12
7.11	6.36	6.03		< 4.60	< 4.60				CC(C)(C)NS(=O)(=O)c1ccc(-c2cc3c(N)ncc(C(=O)NCCO)c3s2)cc1
6.89	5.89	5.83	5.18	< 4.60	< 4.60	5.35	< 4.60	0.023	COCCNC(=O)c1cnc(N)c2cc(-c3ccc(S(=O)(=O)NC(C)(C)C)cc3)sc12
6.15	5.48	5.39	< 4.60	< 4.60	< 4.60	< 4.60	< 4.60	0.064	CN(C)CCNC(=O)c1cnc(N)c2cc(-c3ccc(S(=O)(=O)NC(C)(C)C)cc3)sc12
6.18	5.62	5.57	< 4.60	< 4.60	< 4.60				CC(C)(C)NS(=O)(=O)c1ccc(-c2cc3c(N)ncc(C(=O)NCCN4CCCCC4)c3s2)cc1
6.75	6.02	6.12		< 4.60	< 4.60	5.14	< 4.60	0.101	CC(C)(C)NS(=O)(=O)c1ccc(-c2cc3c(N)ncc(C(=O)NCCN4CCOCC4)c3s2)cc1
6.69	6.19	5.81	4.90	< 4.60	< 4.60				CC(C)(C)NS(=O)(=O)c1ccc(-c2cc3c(N)ncc(C(=O)NCCCN4CCOCC4)c3s2)cc1
